Results published in patent US20250177383A1, “DI-CYCLOPROPYL BASED IL-17A MODULATORS AND USES THEREOF” (DICE ALPHA, INC., priority 2022, published 2025).

What was measured:
IL-17A/A = biological target: T1, IL-17A/A (Homo sapiens, UniProt Q16552); experiment: IL-17A/A HEK-Blue Cell Assay; assay type: cell-based; settings: HEK-Blue IL-17 reporter cells, IL-17A/A stimulation, 20 hours, SEAP readout; read-out: IL17 AA HEK-5 pIC50 (converted)
T1 sequence (Q16552 24-155): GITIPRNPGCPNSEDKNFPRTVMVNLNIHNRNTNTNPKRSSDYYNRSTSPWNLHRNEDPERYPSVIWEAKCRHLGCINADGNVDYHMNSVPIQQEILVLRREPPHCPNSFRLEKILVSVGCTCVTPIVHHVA
Outline: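 Cells co-expressing IL-17RA, IL-17RC and Act1 received titrated compound, top final 10 uM in 0.1% DMSO, immediately before IL-17A/A stimulation.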

IL-17A/F = biological target: T2, IL-17A/F (Homo sapiens, UniProt Q16552+Q96PD4); experiment: IL-17A/F HEK-Blue Cell Assay; assay type: cell-based; settings: HEK-Blue IL-17 reporter cells, IL-17A/F stimulation, 20 hours, SEAP readout; read-out: IL17AF HEK Blue pIC50 (converted)
T2 sequence (Q16552 24-155): T1 sequence (Q16552 24-155)
T2 sequence (Q96PD4 31-163): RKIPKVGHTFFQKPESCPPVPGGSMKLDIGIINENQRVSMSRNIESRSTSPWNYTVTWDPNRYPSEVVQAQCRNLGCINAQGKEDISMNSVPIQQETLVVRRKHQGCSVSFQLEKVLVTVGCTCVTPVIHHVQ
Protocol: The HEK-Blue IL-17 reporter cell line (Fisher #NC1408637) was used for cell-based IL-17A/F inhibition assays. Cells were grown and prepared for assays according to the manufacturer's instructions. This cell line consists of HEK 293 cells that were designed to expressed IL-17RA, IL-17R^C, and the ActI adapter molecule, the combination of which, when stimulated by IL-17A/A activates a NFκB promoter and drives expression of a recombinant Secreted Alkaline Phosphatase (SEAP) geneprotein. Media from the cells is then added to a development reagent (Quanti-Blue Substrate, Fisher #NC9711613), and read at A630.
Compounds were titrated in DMSO and added to the cells immediately before adding IL-17A/A (Custom from R&D systems, untagged IL-17A/F+BSA as a carrier protein). The cells, compound, and IL-17A/A were then incubated for 20 hours before media was removed for SEAP analysis. The resulting inhibition curve was then analyzed using a Dotmatics screening protocol, and IC50 values were determined using a 4-parameter nonlinear fit. DMSO was added to a universal final concentration of 0.1% to optimize background.

Compound	IC50 (IL-17A/A) [nM]	IC50 (IL-17A/F) [nM]
CCC(OC)C(=O)N[C@@H](C(=O)N1CCN(C)[C@H](C)C1)[C@@H](C)c1ccc(NC(=O)[C@@H](NC(=O)c2ccnn2CC)C(C2CC2)C2CC2)c(F)c1 (single isomer, unassigned) [Compound 335]	10 to 100	100 to 10000
CO[C@@H](C)C(=O)N[C@@H](C(=O)N1CCN(C)[C@H](C)C1)[C@@H](C)c1ccc(NC(=O)[C@@H](NC(=O)c2ccnn2C2CC2)C(C2CC2)C2CC2)c(F)c1 [Compound 342]	< 10	10 to 100
CO[C@@H](C)C(=O)N[C@@H](C(=O)N1C[C@@H](C)N(C)C[C@H]1C)[C@@H](C)c1ccc(NC(=O)[C@@H](NC(=O)C2(F)CC2)C(C2CC2)C2CC2)c(F)c1 [Compound 290]	< 10	100 to 10000
CCn1nccc1C(=O)N[C@H](C(=O)Nc1ccc([C@H](C)[C@@H](NC(=O)[C@H](C)OC)C(=O)N2CCN(C)CC2)cc1F)C(C1CC1)C1CC1 [Compound 222]	< 10	10 to 100
CCn1nccc1C(=O)N[C@H](C(=O)Nc1ccc([C@H](C)[C@@H](NC(=O)[C@H](C)OC)C(=O)N2C[C@@H](C)N(C)C[C@H]2C)cc1F)C(C1CC1)C1CC1 [Compound 287]	< 10	< 10
CCn1nccc1C(=O)N[C@H](C(=O)Nc1ccc([C@H](C)[C@@H](NC(=O)[C@H](C)N(C)c2ncncn2)C(=O)N2CCN(C)[C@H](C)C2)cc1F)C(C1CC1)C1CC1 [Compound 305]	< 10	< 10
COCC(=O)N[C@@H](C(=O)N1CCN(C)CC1)[C@@H](C)c1ccc(NC(=O)[C@@H](NC(=O)c2ccnn2C(C)C)C(C2CC2)C2CC2)c(F)c1 [Compound 345]	< 10	10 to 100
CCC(OC)C(=O)N[C@@H](C(=O)N1CCN(C)[C@H](C)C1)[C@@H](C)c1ccc(NC(=O)[C@@H](NC(=O)C2(F)CC2)C(C2CC2)C2CC2)c(F)c1 (single isomer, unassigned) [Compound 336]	10 to 100	100 to 10000
CCn1nccc1C(=O)N[C@H](C(=O)Nc1ccc([C@H](C)[C@@H](NC(=O)COC)C(=O)N2C[C@@H](C)N(C)[C@@H](C)C2)cc1F)C(C1CC1)C1CC1 [Compound 293]	< 10	10 to 100
CCn1nccc1C(=O)N[C@H](C(=O)Nc1ccc([C@H](C)[C@@H](NC(=O)C(C)CC(F)(F)F)C(=O)N2CCN(C)CC2)cc1F)C(C1CC1)C1CC1 (single isomer, unassigned) [Compound 331]	10 to 100	100 to 10000
CCC(=O)N[C@@H](C(=O)N1C[C@@H](C)N(C)C[C@H]1C)[C@@H](C)c1ccc(NC(=O)[C@@H](NC(=O)C2(F)CC2)C(C2CC2)C2CC2)c(F)c1 [Compound 288]	< 10	100 to 10000
C[C@@H]1CN(C(=O)[C@H](NC(=O)N(C)C2CC2)[C@@H](C)c2ccc(NC(=O)[C@@H](NC(=O)C3(F)CC3)C(C3CC3)C3CC3)c(F)c2)CCN1C [Compound 271]	< 10	100 to 10000
COCC(=O)N[C@@H](C(=O)N1CCN(C)CC1)[C@@H](C)c1ccc(NC(=O)[C@@H](NC(=O)c2nonc2C)C(C2CC2)C2CC2)c(F)c1 [Compound 346]	10 to 100	100 to 10000
CCOC(=O)N[C@@H](C)C(=O)N[C@@H](C(=O)N1CCN(C)CC1)[C@@H](C)c1ccc(NC(=O)[C@@H](NC(=O)C2(F)CC2)C(C2CC2)C2CC2)c(F)c1 [Compound 269]	< 10	100 to 10000
CCC(=O)NC(C(=O)N1CCN(C)CC1)C(c1ccc(NC(=O)[C@@H](NC(=O)c2ccnn2CC)C(C2CC2)C2CC2)c(F)c1)C(F)(F)F (single isomer, unassigned) [Compound 350]	100 to 10000	100 to 10000
CCn1nccc1C(=O)N[C@H](C(=O)Nc1ccc([C@H](C)[C@@H](NC(=O)[C@H](C)Nc2ncccn2)C(=O)N2CCN(C)[C@H](C)C2)cc1F)C(C1CC1)C1CC1 [Compound 306]	< 10	< 10
CCOC(=O)N[C@@H](C)C(=O)N[C@@H](C(=O)N1CCN(C)CC1)[C@@H](C)c1ccc(NC(=O)[C@@H](NC(=O)c2nonc2C)C(C2CC2)C2CC2)c(F)c1 [Compound 361]	< 10	10 to 100
